Assay results published in PubChem BioAssay AID1963963 (Molecular Pharmacology Branch, DTP, NCI, 2024).

System: 958667-338-R-J2-PDC tumor spheroids viability
Experiment: Anticancer human tumor 958667-338-R-J2-PDC patient-derived colon adenocarcinoma cell line growth inhibition [PI3K]
Details: spheroids with HUVEC and MSC; for IC50: curve of first compound; for viability, T/C: stronger effect = lower value
Summary of the method: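 Viability of mixed-cell spheroids was determined after exposure to pairwise combinations, one partner being inavolisib, alpelisib, duvelisib or copanlisib. Highest tested concentration matched clinical Cmax where known and 10 microM where not, descending in half-log steps.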

[1] = second compound 0.0316 µM, first compound 0.0316 µM
[2] = second compound 0.0316 µM, first compound 0.1 µM
[3] = second compound 0.0316 µM, first compound 0.316 µM
[4] = second compound 0.0316 µM, first compound 1 µM
[5] = second compound 0.1 µM, first compound 0.0316 µM
[6] = second compound 0.1 µM, first compound 0.1 µM
[7] = second compound 0.1 µM, first compound 0.316 µM
[8] = second compound 0.1 µM, first compound 1 µM
[9] = second compound 0.316 µM, first compound 0.0316 µM
[10] = second compound 0.316 µM, first compound 0.1 µM
[11] = second compound 0.316 µM, first compound 0.316 µM
[12] = second compound 0.316 µM, first compound 1 µM
[13] = second compound 1 µM, first compound 0.0316 µM
[14] = second compound 1 µM, first compound 0.1 µM
[15] = second compound 1 µM, first compound 0.316 µM
[16] = second compound 1 µM, first compound 1 µM
[17] = second compound 3.16 µM, first compound 0.0316 µM
[18] = second compound 3.16 µM, first compound 0.1 µM
[19] = second compound 3.16 µM, first compound 0.316 µM
[20] = second compound 3.16 µM, first compound 1 µM
[21] = second compound 10 µM, first compound 0.0316 µM
[22] = second compound 10 µM, first compound 0.1 µM
[23] = second compound 10 µM, first compound 0.316 µM
[24] = second compound 10 µM, first compound 1 µM
[25] = second compound 0.0316 µM, first compound 3.16 µM
[26] = second compound 0.0316 µM, first compound 10 µM
[27] = second compound 0.1 µM, first compound 3.16 µM
[28] = second compound 0.1 µM, first compound 10 µM
[29] = second compound 0.316 µM, first compound 3.16 µM
[30] = second compound 0.316 µM, first compound 10 µM
[31] = second compound 1 µM, first compound 3.16 µM
[32] = second compound 1 µM, first compound 10 µM
[33] = second compound 3.16 µM, first compound 3.16 µM
[34] = second compound 3.16 µM, first compound 10 µM
[35] = second compound 10 µM, first compound 3.16 µM
[36] = second compound 10 µM, first compound 10 µM
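Note: spheroids exposed to compounds for seven days before readout.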

CCN1CCN(Cc2ccc(Nc3ncc(F)c(-c4cc(F)c5nc(C)n(C(C)C)c5c4)n3)nc2)CC1 + CC(Nc1ncnc2nc[nH]c12)c1cc2cccc(Cl)c2c(=O)n1-c1ccccc1
IC50 (second compound 0.0316 µM): > 1 µM
IC50 (second compound 0.1 µM): > 1 µM
IC50 (second compound 0.316 µM): > 1 µM
IC50 (second compound 1 µM): > 1 µM
IC50 (second compound 3.16 µM): > 1 µM
IC50 (second compound 10 µM): > 1 µM
viability, T/C (second compound 0.0316 µM, first compound 0.00316 µM): 91.2%
viability, T/C (second compound 0.0316 µM, first compound 0.01 µM): 98.2%
viability, T/C [1]: 98.8%
viability, T/C [2]: 76.2%
viability, T/C [3]: 66.1%
viability, T/C [4]: 63.4%
viability, T/C (second compound 0.1 µM, first compound 0.00316 µM): 87.2%
viability, T/C (second compound 0.1 µM, first compound 0.01 µM): 88.9%
viability, T/C [5]: 87.3%
viability, T/C [6]: 83%
viability, T/C [7]: 68.8%
viability, T/C [8]: 65.2%
viability, T/C (second compound 0.316 µM, first compound 0.00316 µM): 89.2%
viability, T/C (second compound 0.316 µM, first compound 0.01 µM): 97%
viability, T/C [9]: 82.2%
viability, T/C [10]: 70.8%
viability, T/C [11]: 71.4%
viability, T/C [12]: 71.2%
viability, T/C (second compound 1 µM, first compound 0.00316 µM): 102%
viability, T/C (second compound 1 µM, first compound 0.01 µM): 71.1%
viability, T/C [13]: 86.2%
viability, T/C [14]: 66.1%
viability, T/C [15]: 69%
viability, T/C [16]: 66.2%
viability, T/C (second compound 3.16 µM, first compound 0.00316 µM): 108%
viability, T/C (second compound 3.16 µM, first compound 0.01 µM): 89.7%
viability, T/C [17]: 84%
viability, T/C [18]: 65.5%
viability, T/C [19]: 64%
viability, T/C [20]: 55.9%
viability, T/C (second compound 10 µM, first compound 0.00316 µM): 90%
viability, T/C (second compound 10 µM, first compound 0.01 µM): 82.8%
viability, T/C [21]: 77.8%
viability, T/C [22]: 57.8%
viability, T/C [23]: 57.8%
viability, T/C [24]: 53.9%

CNC(=O)c1ccc(N2C(=S)N(c3ccc(C#N)c(C(F)(F)F)c3)C(=O)C2(C)C)cc1F + COc1c(OCCCN2CCOCC2)ccc2c3n(c(=NC(=O)c4cnc(N)nc4)nc12)CCN3
IC50 (second compound 0.00316 µM): > 10 µM
IC50 (second compound 0.01 µM): > 10 µM
IC50 (second compound 0.0316 µM): > 10 µM
IC50 (second compound 0.1 µM): 4.27 µM
IC50 (second compound 0.316 µM): < 0.0316 µM
IC50 (second compound 1 µM): < 0.0316 µM
viability, T/C (second compound 0.00316 µM, first compound 0.0316 µM): 95.2%
viability, T/C (second compound 0.00316 µM, first compound 0.1 µM): 97.8%
viability, T/C (second compound 0.00316 µM, first compound 0.316 µM): 91.4%
viability, T/C (second compound 0.00316 µM, first compound 1 µM): 96.5%
viability, T/C (second compound 0.00316 µM, first compound 3.16 µM): 109%
viability, T/C (second compound 0.00316 µM, first compound 10 µM): 82.1%
viability, T/C (second compound 0.01 µM, first compound 0.0316 µM): 81.9%
viability, T/C (second compound 0.01 µM, first compound 0.1 µM): 88.9%
viability, T/C (second compound 0.01 µM, first compound 0.316 µM): 90.1%
viability, T/C (second compound 0.01 µM, first compound 1 µM): 82.7%
viability, T/C (second compound 0.01 µM, first compound 3.16 µM): 105%
viability, T/C (second compound 0.01 µM, first compound 10 µM): 92%
viability, T/C [1]: 68.5%
viability, T/C [2]: 74.7%
viability, T/C [3]: 74.7%
viability, T/C [4]: 68.2%
viability, T/C [25]: 92.7%
viability, T/C [26]: 67.8%
viability, T/C [5]: 54.9%
viability, T/C [6]: 61.4%
viability, T/C [7]: 56.2%
viability, T/C [8]: 59.7%
viability, T/C [27]: 50.5%
viability, T/C [28]: 42.8%
viability, T/C [9]: 40.9%
viability, T/C [10]: 47.6%
viability, T/C [11]: 38.8%
viability, T/C [12]: 33.2%
viability, T/C [29]: 31.5%
viability, T/C [30]: 22.7%
viability, T/C [13]: 19.5%
viability, T/C [14]: 20.9%
viability, T/C [15]: 17.4%
viability, T/C [16]: 18.3%
viability, T/C [31]: 16%
viability, T/C [32]: 9.91%

Cn1nccc1Nc1nccc(-c2ccn(C(CO)c3ccc(Cl)c(F)c3)c(=O)c2)n1 (stereo not drawn) + CC(Nc1ncnc2nc[nH]c12)c1cc2cccc(Cl)c2c(=O)n1-c1ccccc1
IC50 (second compound 0.0316 µM): > 10 µM
IC50 (second compound 0.1 µM): > 10 µM
IC50 (second compound 0.316 µM): > 10 µM
IC50 (second compound 1 µM): > 10 µM
IC50 (second compound 3.16 µM): > 10 µM
IC50 (second compound 10 µM): 8.08 µM
viability, T/C [1]: 93.3%
viability, T/C [2]: 93.3%
viability, T/C [3]: 92.1%
viability, T/C [4]: 97.6%
viability, T/C [25]: 72.2%
viability, T/C [26]: 77.8%
viability, T/C [5]: 88%
viability, T/C [6]: 106%
viability, T/C [7]: 109%
viability, T/C [8]: 69.4%
viability, T/C [27]: 73.6%
viability, T/C [28]: 63.3%
viability, T/C [9]: 91.1%
viability, T/C [10]: 105%
viability, T/C [11]: 80.6%
viability, T/C [12]: 106%
viability, T/C [29]: 76.3%
viability, T/C [30]: 60.1%
viability, T/C [13]: 93.9%
viability, T/C [14]: 87%
viability, T/C [15]: 82.7%
viability, T/C [16]: 89.6%
viability, T/C [31]: 83.5%
viability, T/C [32]: 50.7%
viability, T/C [17]: 82.9%
viability, T/C [18]: 79.9%
viability, T/C [19]: 68.3%
viability, T/C [20]: 75.4%
viability, T/C [33]: 66.8%
viability, T/C [34]: 51.4%
viability, T/C [21]: 94%
viability, T/C [22]: 94.2%
viability, T/C [23]: 67.3%
viability, T/C [24]: 87.6%
viability, T/C [35]: 66.3%
viability, T/C [36]: 44.9%

CNC(=O)c1ccc(N2C(=S)N(c3ccc(C#N)c(C(F)(F)F)c3)C(=O)C2(C)C)cc1F + Cc1nc(NC(=O)N2CCCC2C(N)=O)sc1-c1ccnc(C(C)(C)C(F)(F)F)c1
IC50 (second compound 0.0316 µM): > 10 µM
IC50 (second compound 0.1 µM): > 10 µM
IC50 (second compound 0.316 µM): > 10 µM
IC50 (second compound 1 µM): > 10 µM
IC50 (second compound 3.16 µM): > 10 µM
IC50 (second compound 10 µM): > 10 µM
viability, T/C [1]: 109%
viability, T/C [2]: 94.6%
viability, T/C [3]: 93.8%
viability, T/C [4]: 131%
viability, T/C [25]: 101%
viability, T/C [26]: 90.5%
viability, T/C [5]: 105%
viability, T/C [6]: 112%
viability, T/C [7]: 103%
viability, T/C [8]: 91.9%
viability, T/C [27]: 134%
viability, T/C [28]: 93.2%
viability, T/C [9]: 78.9%
viability, T/C [10]: 102%
viability, T/C [11]: 93.2%
viability, T/C [12]: 76.4%
viability, T/C [29]: 98%
viability, T/C [30]: 93.6%
viability, T/C [13]: 74.5%
viability, T/C [14]: 71.2%
viability, T/C [15]: 88%
viability, T/C [16]: 70.8%
viability, T/C [31]: 97.7%
viability, T/C [32]: 82.4%
viability, T/C [17]: 76.9%
viability, T/C [18]: 69%
viability, T/C [19]: 64.3%
viability, T/C [20]: 78.5%
viability, T/C [33]: 72.3%
viability, T/C [34]: 65.2%
viability, T/C [21]: 65.2%
viability, T/C [22]: 67.3%
viability, T/C [23]: 58.6%
viability, T/C [24]: 62.1%
viability, T/C [35]: 60.9%
viability, T/C [36]: 46.9%
